This is an account of results in patent US20160208297A1, “OMEGA3 UNSATURATED FATTY ACID ENZYME AND METHOD FOR PRODUCING EICOSAPENTAENOIC ACID” (KYOTO UNIVERSITY, priority 2013, published 2016).

The subject of the assay is polypeptide (SEQ ID NO: 2) ω3 desaturase. Description: conversion of added ω6 unsaturated fatty acids to ω3 unsaturated fatty acids by yeast transformant expressing the cDNA (SEQ ID NO: 1). The conditions noted are these: for conversion into the corresponding ω3 unsaturated fatty acid / Conversion rate (%): Saccharomyces cerevisiae InvSc1 transformant, 28° C., two days; for Conversion rate (%): substrate added to medium, [product amount/(substrate amount + product amount)] × 100. Format: cell-based, Pythium folliculosum. The procedure:
The cDNA (SEQ ID NO: 1) prepared in the above was integrated into a yeast expression vector, pYE22m (Biosci. Biotech. Biochem., 1995, 59: 1221-1228). The vector was introduced into Saccharomyces cerevisiae InvSc1 strain (tryptophan auxotrophy […]) by an electroporation method to obtain a transformant. The transformant was cultured in YPD culture medium (polypeptone 20 g, yeast extract 10 g, adenine 0.4 g, agar 20 g and glucose 20 g were diluted in 1,000 mL of water) at 28° C. for one day to express the polypeptide from cDNA integrated therein. Note that ω3 desaturase inherent in the oleaginous yeast is not expressed in this culture condition. Subsequently, to the culture medium, an ω6 unsaturated fatty acid: linoleic acid (LA, 18: 2n-6), γ-linolenic acid (GLA, 18: 3n-6), dihomo-γ-linolenic acid (DGLA, 20: 3n-6), or arachidonic acid (ARA, 20: 4n-6) was added and cultured at 28° C. for two days. Thereafter the amounts of the corresponding ω3 unsaturated fatty acid: α-linolenic acid (ALA, 18: 3n-3), stearidonic acid (SDA, 18: 4n-3), eicosatetraenoic acid (ETA, 20: 4n-3) or eicosapentaenoic acid (EPA, 20: 5n-3) produced by ω3 unsaturation were measured.

Regarding `CCCCC/C=C\C/C=C\C/C=C\CCCCC(=O)O` [GLA, γ-linolenic acid], the “conversion into the corresponding ω3 unsaturated fatty acid” value is recorded as “converted into the corresponding ω3 unsaturated fatty acids” and the “Conversion rate (%)” value is given as 8.36%.

For the molecule `CCCCC/C=C\C/C=C\C/C=C\CCCCCCC(=O)O` [DGLA, dihomo-γ-linolenic acid], the “conversion into the corresponding ω3 unsaturated fatty acid” value is reported as “converted into the corresponding ω3 unsaturated fatty acids” and the “Conversion rate (%)” value was found to be 6.90%.

Take `CCCCC/C=C\C/C=C\CCCCCCCC(=O)O` [LA, linoleic acid]: the “conversion into the corresponding ω3 unsaturated fatty acid” value is listed as “converted into the corresponding ω3 unsaturated fatty acids” and the “Conversion rate (%)” value amounted to 3.03%.

Consider `CCCCC/C=C\C/C=C\C/C=C\C/C=C\CCCC(=O)O` [AA, arachidonic acid], for which the “conversion into the corresponding ω3 unsaturated fatty acid” value is “converted into the corresponding ω3 unsaturated fatty acids” and the “Conversion rate (%)” value is given as 7.86%.

B1: polypeptide (SEQ ID NO: 2): ω3 desaturase derived from Pythium folliculosum or Pythium torulosum, encoded by cDNA SEQ ID NO: 1 (protein, listed as Pythium folliculosum)
chain: MADVNTSSPAAAPVATPEPFEFPSLTELKRSIPARYFESSAPRSLLFTARAFAFAYAFGAALFHARQLPLVAEHAALDALLCAAYTFLQGVNMWGFFTIGHDCGHGSFSRYHLLNFVVGTLTHSLILTPYEAWKLSHRLHHKNTGNIDQDEIFYPQRKETVNDPARKMVLSFGLAWWIYEIIGFPPRTEEHTELRDSLFSRHLITGSLSVLAHLACVMLAFNLTYVLGWATMGVYYWAPLFVFASMLVITTFLHHNDEETPWYADSEWTYVKGNLSSVDRDYGWVVNHLSHNIGTHQVHHLFPIIPHYNLNGATEYFRKAFPHLVRKSDDRILPAFVRVGLLYVKYGVIENDAKHFSLKDNREVLTKRA
modifications: Omega-3 desaturase
Turning to B1, under “expressed in Saccharomyces cerevisiae InvSc1, 28° C.”, the ω3 desaturation activity entry is recorded as “an enzyme having ω3 desaturation activity at normal temperature”.
